{"source": "ChEMBL document CHEMBL5518228", "about": "“DNA Interaction and Cleavage Modes of Anthraquinone-Fused Enediynes: A Study on Tiancimycins, Yangpumicins, and Their Semisynthetic Analogues” (J Med Chem, 2024)", "key": {"A549": {"tested_on": "A549", "assay": "Cytotoxicity against human A549 cells incubated for 72 hrs by CCK-8 assay", "assay_type": "functional, cell-based", "conditions": "A549, 72 h"}, "[1]": {"assay": "Cytotoxicity against human NCM460 cells incubated for 72 hrs by CCK-8 assay", "assay_type": "toxicity, cell-based"}, "[2]": {"assay": "Cytotoxicity against human HUVEC cells incubated for 72 hrs by CCK-8 assay", "assay_type": "toxicity, cell-based"}, "DNA [3]": {"tested_on": "DNA", "assay": "Induction of duplex DNA (unknown origin) cleavage assessed as DNA cleaved fragments at AT-rich region at 100 uM incubated for 6 hr in presence of DTT by agarose gel electrophoresis analysis", "assay_type": "nucleic-acid assay"}, "Supercoiled DNA [4]": {"tested_on": "Supercoiled DNA", "assay": "Induction of supercoiled pBR322 DNA (unknown origin) cleavage assessed as relaxation of supercoiled plasmid incubated for 1 hr in presence of DTT by SYBR I Green staining based agarose gel electrophoresis analysis", "assay_type": "nucleic-acid assay"}, "Jurkat": {"tested_on": "Jurkat", "assay": "Cytotoxicity against human Jurkat cells incubated for 72 hrs by CCK-8 assay", "assay_type": "functional, cell-based"}, "Caco-2": {"tested_on": "Caco-2", "assay": "Cytotoxicity against human Caco-2 cells incubated for 72 hrs by CCK-8 assay", "assay_type": "functional, cell-based", "conditions": "Caco-2, 72 h"}, "[5]": {"assay": "Cytotoxicity against human KPL-4 cells incubated for 72 hrs by CCK-8 assay", "assay_type": "functional, cell-based", "conditions": "KPL4, 72 h"}, "Calf thymus DNA [6]": {"tested_on": "Calf thymus DNA", "assay": "Binding affinity to calf thymus DNA assessed as change in gibbs free energy in presence of ethidium bromide by competitive binding based fluorescence spectroscopic analysis", "assay_type": "nucleic-acid assay", "conditions": "Bos taurus"}, "Calf thymus DNA [7]": {"tested_on": "Calf thymus DNA", "assay": "Binding affinity to calf thymus DNA assessed as DNA insertion by measuring change in gibbs free energy in presence of triggered form of compound by fluorescence spectroscopic analysis", "assay_type": "nucleic-acid assay", "conditions": "Bos taurus"}, "Calf thymus DNA [8]": {"tested_on": "Calf thymus DNA", "assay": "Binding affinity to calf thymus DNA assessed as DNA insertion by measuring change in gibbs free energy by fluorescence spectroscopic analysis", "assay_type": "nucleic-acid assay", "conditions": "Bos taurus"}, "DNA [9]": {"tested_on": "DNA", "assay": "Induction of duplex DNA (unknown origin) cleavage assessed as DNA cleaved fragments at AT-rich region at 1 mM incubated for 6 hr in presence of DTT by agarose gel electrophoresis analysis", "assay_type": "nucleic-acid assay"}, "Supercoiled DNA [10]": {"tested_on": "Supercoiled DNA", "assay": "Induction of supercoiled pBR322 DNA (unknown origin) cleavage at 100 nM incubated for 1 hr in presence of NADPH by agarose gel electrophoresis analysis", "assay_type": "nucleic-acid assay"}, "Supercoiled DNA [11]": {"tested_on": "Supercoiled DNA", "assay": "Induction of supercoiled pBR322 DNA (unknown origin) cleavage at 100 nM incubated for 1 hr in presence of GSH by agarose gel electrophoresis analysis", "assay_type": "nucleic-acid assay"}, "Supercoiled DNA [12]": {"tested_on": "Supercoiled DNA", "assay": "Induction of supercoiled pBR322 DNA (unknown origin) cleavage at 100 nM incubated for 1 hr in presence of DTT by agarose gel electrophoresis analysis", "assay_type": "nucleic-acid assay"}}, "note": "pEC50, pIC50: −log10 of the molar value. Activity calls are given as the source filed them. No cut-off for these calls is given here.", "data": [{"smiles": "COC(=O)[C@@H](O)[C@@](C)(O)[C@@]12O[C@]13c1cc(O)c4c(c1N[C@H]2C#C/C=C\\C#C[C@H]3O)C(=O)c1c(O)c(OC)cc(-n2[nH]c(=O)n(-c3ccccc3)c2=O)c1C4=O", "values": [{"measurement": "pIC50", "setting": "A549", "result": 6.30}, {"measurement": "IC50 at 72 h", "setting": "[1]", "result": 227, "unit": "nM"}, {"measurement": "IC50 at 72 h", "setting": "[2]", "result": 946, "unit": "nM"}, {"measurement": "Activity", "setting": "DNA [3]", "result": "inactive"}, {"measurement": "pEC50", "setting": "Supercoiled DNA [4]", "result": 7.48}, {"measurement": "pIC50", "setting": "Jurkat", "result": 7.35}, {"measurement": "pIC50", "setting": "Caco-2", "result": 6.21}, {"measurement": "pIC50", "setting": "[5]", "result": 7.63}]}, {"smiles": "O=C1c2cccc(O)c2C(=O)c2c3c(cc(O)c21)[C@@]12O[C@@]1([C@H](O)CO)[C@H](C#C/C=C\\C#C[C@H]2O)N3", "values": [{"measurement": "pIC50", "setting": "A549", "result": 9.70}, {"measurement": "IC50 at 72 h", "setting": "[1]", "result": 0.2, "unit": "nM"}, {"measurement": "IC50 at 72 h", "setting": "[2]", "result": 0.8, "unit": "nM"}, {"measurement": "Activity", "setting": "DNA [3]", "result": "Active"}, {"measurement": "pEC50", "setting": "Supercoiled DNA [4]", "result": 6.58}, {"measurement": "pIC50", "setting": "Jurkat", "result": 10.70}, {"measurement": "pIC50", "setting": "Caco-2", "result": 7.87}, {"measurement": "deltaG", "setting": "Calf thymus DNA [6]", "result": -8.41, "unit": "kcal/mol"}, {"measurement": "pIC50", "setting": "[5]", "result": 11.00}]}, {"smiles": "COc1cc(Br)c2c(c1O)C(=O)c1c3c(cc(O)c1C2=O)[C@@]12O[C@@]1([C@@H](C)O)[C@H](C#C/C=C\\C#C[C@H]2O)N3", "values": [{"measurement": "pIC50", "setting": "A549", "result": 7.96}, {"measurement": "IC50 at 72 h", "setting": "[1]", "result": 3.3, "unit": "nM"}, {"measurement": "IC50 at 72 h", "setting": "[2]", "result": 22.7, "unit": "nM"}, {"measurement": "Activity", "setting": "DNA [3]", "result": "Active"}, {"measurement": "pEC50", "setting": "Supercoiled DNA [4]", "result": 7.10}, {"measurement": "pIC50", "setting": "Jurkat", "result": 8.59}, {"measurement": "pIC50", "setting": "Caco-2", "result": 6.81}, {"measurement": "deltaG", "setting": "Calf thymus DNA [6]", "result": -8.13, "unit": "kcal/mol"}, {"measurement": "pIC50", "setting": "[5]", "result": 9.51}]}, {"smiles": "COC(=O)[C@@H](O)[C@@](C)(O)[C@@]12O[C@]13c1cc(O)c4c(c1N[C@H]2C#C/C=C\\C#C[C@H]3O)C(=O)c1cc(OC)ccc1C4=O", "values": [{"measurement": "pIC50", "setting": "A549", "result": 8.55}, {"measurement": "IC50 at 72 h", "setting": "[1]", "result": 2.8, "unit": "nM"}, {"measurement": "IC50 at 72 h", "setting": "[2]", "result": 15.5, "unit": "nM"}, {"measurement": "Activity", "setting": "DNA [3]", "result": "Active"}, {"measurement": "pEC50", "setting": "Supercoiled DNA [4]", "result": 6.23}, {"measurement": "pIC50", "setting": "Jurkat", "result": 10.00}, {"measurement": "pIC50", "setting": "Caco-2", "result": 8.17}, {"measurement": "deltaG", "setting": "Calf thymus DNA [6]", "result": -7.99, "unit": "kcal/mol"}, {"measurement": "pIC50", "setting": "[5]", "result": 9.30}]}, {"smiles": "COc1cccc2c1C(=O)c1c(O)c3c(c(O)c1C2=O)C[C@@](O)(C(=O)CO)C[C@@H]3O[C@H]1C[C@H](N)[C@H](O)[C@H](C)O1", "values": [{"measurement": "deltaG", "setting": "Calf thymus DNA [6]", "result": -9.68, "unit": "kcal/mol"}]}, {"smiles": "COC1=C(C(=O)O)[C@H](C)[C@@]23O[C@]24c2cc(O)c5c(c2N[C@H]3C#C/C=C\\C#CC14)C(=O)c1ccccc1C5=O", "values": [{"measurement": "deltaG", "setting": "Calf thymus DNA [6]", "result": -3.79, "unit": "kcal/mol"}]}, {"smiles": "C[C@@H](O)C12O[C@]13c1cc(O)c4c(c1N[C@H]2C#C/C=C\\C#C[C@H]3O)C(=O)c1c(O)cccc1C4=O", "note": "(some centres undefined)", "values": [{"measurement": "pIC50", "setting": "A549", "result": 10.22}, {"measurement": "IC50 at 72 h", "setting": "[1]", "result": 0.07, "unit": "nM"}, {"measurement": "IC50 at 72 h", "setting": "[2]", "result": 0.2, "unit": "nM"}, {"measurement": "Activity", "setting": "DNA [3]", "result": "Active"}, {"measurement": "pEC50", "setting": "Supercoiled DNA [4]", "result": 7.12}, {"measurement": "pIC50", "setting": "Jurkat", "result": 11.05}, {"measurement": "pIC50", "setting": "Caco-2", "result": 8.85}, {"measurement": "deltaG", "setting": "Calf thymus DNA [6]", "result": -8.31, "unit": "kcal/mol"}, {"measurement": "pIC50", "setting": "[5]", "result": 11.22}]}, {"smiles": "COC1=C(C(=O)O)[C@H](C)[C@@]23O[C@]24c2cc(O)c5c(c2N[C@H]3C#C/C=C\\C#CC14)C(=O)c1c(O)ccc(O)c1C5=O", "values": [{"measurement": "deltaG", "setting": "Calf thymus DNA [7]", "result": -13.6, "unit": "kcal/mol"}, {"measurement": "deltaG", "setting": "Calf thymus DNA [8]", "result": -18.1, "unit": "kcal/mol"}, {"measurement": "deltaG", "setting": "Calf thymus DNA [6]", "result": 2.62, "unit": "kcal/mol"}]}, {"smiles": "COc1ccc2c(c1OC)C(=O)c1c3c(cc(OC)c1C2=O)[C@@]12O[C@@]1([C@@H](C)O)[C@H](C#C/C=C\\C#C[C@H]2O)N3", "values": [{"measurement": "pIC50", "setting": "A549", "result": 6.10}, {"measurement": "IC50 at 72 h", "setting": "[1]", "result": 382, "unit": "nM"}, {"measurement": "IC50 at 72 h", "setting": "[2]", "result": 525, "unit": "nM"}, {"measurement": "pEC50", "setting": "Supercoiled DNA [4]", "result": "< 6.00"}, {"measurement": "pIC50", "setting": "Jurkat", "result": 6.93}, {"measurement": "Activity", "setting": "DNA [9]", "result": "inactive"}, {"measurement": "pIC50", "setting": "Caco-2", "result": 6.20}, {"measurement": "pIC50", "setting": "[5]", "result": 7.48}]}, {"smiles": "O=C1c2ccccc2C(=O)c2c3c(cc(O)c21)[C@@]12O[C@@]1([C@H](O)CO)[C@H](C#C/C=C\\C#C[C@H]2O)N3", "values": [{"measurement": "pIC50", "setting": "A549", "result": 9.70}, {"measurement": "IC50 at 72 h", "setting": "[1]", "result": 0.1, "unit": "nM"}, {"measurement": "Activity", "setting": "Supercoiled DNA [10]", "result": "inactive"}, {"measurement": "IC50 at 72 h", "setting": "[2]", "result": 0.3, "unit": "nM"}, {"measurement": "Activity", "setting": "DNA [3]", "result": "Active"}, {"measurement": "pEC50", "setting": "Supercoiled DNA [4]", "result": 7.08}, {"measurement": "pIC50", "setting": "Jurkat", "result": 11.00}, {"measurement": "pIC50", "setting": "Caco-2", "result": 8.27}, {"measurement": "deltaG", "setting": "Calf thymus DNA [6]", "result": -8.31, "unit": "kcal/mol"}, {"measurement": "Activity", "setting": "Supercoiled DNA [11]", "result": "Active"}, {"measurement": "pIC50", "setting": "[5]", "result": 11.40}, {"measurement": "Activity", "setting": "Supercoiled DNA [12]", "result": "Active"}]}]}
